Source: patent US10350199B2, “3-(1h-pyrrolo[2,3-b]pyridin-2-yl)-1h-indazoles and therapeutic uses thereof” (Samumed, LLC, priority 2015, dated 2019)

Legend:
Assay type in all cases: cell-based
[1] = system: IL-6 (THP-1 human monocyte cell line); experiment: IL-6 inhibition in LPS-stimulated THP-1 cells (HTRF); settings: for EC50: IL-6 inhibition, LPS-stimulated THP-1 cells, HTRF; for inhibition at 10 µM: THP-1, read-out: percentage in parentheses beside EC50 >10 (IL-6 inhibition)
Method in brief: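 THP-1 cells kept 24 h in 1% FBS medium, treated 2 h at 37 °C, then stimulated with 500 ng/mL LPS for another 22 h. IL-6 measured by HTRF as the 665/620 nm ratio; EC50 from a four-parameter fit normalized to DMSO controls.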

[2] = system: primary human fibroblasts derived from IPF patients (LL29 cells) treated with TGF-β1; experiment: Inhibition of the fibrotic process: αSMA staining in TGF-β1 treated LL29 fibroblasts; settings: Fibroblast; for EC50: 96 h, LL29 cells, TGF-β1 20 ng/mL, 4 days, % αSMA positive cells; for inhibition at 10 µM: read-out: percent inhibition at 10 μM
Method in brief: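 IPF-patient-derived LL29 lung fibroblasts in F12 with 1% FBS, stimulated with TGF-β1 alongside compound; TGF-β1 plus DMSO wells served as controls. After 4 days, nuclei stained with 1 μM SYTOX green for 30 min at room temperature, alongside αSMA staining.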

[3] = system: Wnt activity (Sp5-Luc reporter, SW480 colon carcinoma cells); experiment: Wnt activity screening assay, Sp5-Luc reporter gene in SW480 cells; settings: Homo sapiens; for inhibition at 10 µM: SW480, read-out: percent inhibition at 10 μM; for EC50: Sp5-Luc reporter, SW480 cells, overnight incubation
Method in brief: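 SW480 cells stably transduced with lentiviral Sp5 promoter (eight TCF/LEF sites)-firefly luciferase, plated at 4,000 cells/well in 1% FBS medium and incubated overnight at 37° C. Luminescence read after BrightGlo addition, normalized to DMSO-only cells; EC50 from four-parameter variable-slope nonlinear regression.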

SW480 colon cancer cells = experiment: Cell viability assay (CellTiter-Blue), SW480 cells, four days; settings: Homo sapiens; for EC50: 96 h, SW480 cell viability, four days, CellTiter-Blue; for inhibition at 10 µM: SW480, read-out: percent inhibition at 10 μM
Method in brief: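 Fluorescence from resazurin reduced to resorufin by metabolically active cells was the read-out, taken after ~3 h with CellTiter-Blue.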

[4] = system: primary human mesenchymal stem cells (hMSCs); experiment: Induction of chondrogenesis in human mesenchymal stem cells (nodule area, Rhodamine B/Nile Red); settings: hMSC chondrogenesis; for Emax: relative to TGF-β3 (10 ng/mL) positive control, read-out: Max. Activity as % TGF-β3 activity; for EC50: concentration required to induce 50% levels of chondrogenesis of TGF-β3 positive control, read-out: Conc (nM) of 50% TGF-β3 activity
Text: Representative compounds were screened using primary human mesenchymal stem cells (hMSCs) to determine their ability to induce chondrogenesis (process by which cartilage is developed).
Primary human mesenchymal stem cells (hMSCs) were purchased from Lonza (Walkersville, Md.) and expanded in Mesenchymal Stem Cell Growth Media (Lonza). Cells between passage 3 and 6 were used for the experiments.
Area of nodules in each well was normalized to the average of 3 DMSO treated wells on the same plate using Excel (Microsoft Inc.). The normalized averages (fold change over DMSO) of 2 or 3 replicate wells for each compound concentration were calculated. Due to solubility limitations of some of the compounds, curve fitting was incomplete leading to inaccurate EC50 determinations.
Using TGF-β3 as a positive control, the concentration of representative compounds required to induce 50% levels of chondrogenesis is reported. In addition, the maximum activity of each compound and the respective dose that each compound reached maximum chondrogenesis activity is reported.

| SMILES | EC50 [1] [µM] | EC50 [3] [µM] | EC50 (SW480 colon cancer cells) [µM] | EC50 [4] [nM] | inhibition at 10 µM [1] [%] | EC50 [2] [µM] | inhibition at 10 µM [2] [%] | inhibition at 10 µM [3] [%] | inhibition at 10 µM (SW480 colon cancer cells) [%] | Emax [4] [%] |
| --- | --- | --- | --- | --- | --- | --- | --- | --- | --- | --- |
| O=C(Nc1cncc(-c2ccc3[nH]nc(-c4cc5c(-c6ccncc6)ccnc5[nH]4)c3c2)c1)c1ccccc1 [Compound 123, N-(5-(3-(4-(Pyridin-4-yl)-1H-pyrrolo[2,3-b]pyridin-2-yl)-1H-indazol-5-yl)pyridin-3-yl)benzamide] | > 10 | > 10 | > 10 | – | 20.6 | > 10 | 49.2 | 17.3 | 7.2 | 19 |
| CCCCC(=O)Nc1cncc(-c2ccc3[nH]nc(-c4cc5c(-c6ccncc6)ccnc5[nH]4)c3c2)c1 [Compound 131, N-(5-(3-(4-(Pyridin-4-yl)-1H-pyrrolo[2,3-b]pyridin-2-yl)-1H-indazol-5-yl)pyridin-3-yl)pentanamide] | > 10 | > 10 | > 10 | – | 31.5 | > 10 | 6.3 | 16.7 | 10.6 | 18 |
| O=C(Nc1cncc(-c2ccc3[nH]nc(-c4cc5c(-c6ccncc6)ccnc5[nH]4)c3c2)c1)C1CCC1 [Compound 133, N-(5-(3-(4-(Pyridin-4-yl)-1H-pyrrolo[2,3-b]pyridin-2-yl)-1H-indazol-5-yl)pyridin-3-yl)cyclobutanecarboxamide] | > 10 | > 10 | > 10 | 900 | 33.3 | > 10 | 0 | 2.8 | 6.4 | 73 |
| c1cc(-c2ccnc3[nH]c(-c4n[nH]c5ccc(-c6cncnc6)cc45)cc23)ccn1 [Compound 139, 3-(4-(Pyridin-4-yl)-1H-pyrrolo[2,3-b]pyridin-2-yl)-5-(pyrimidin-5-yl)-1H-indazole] | > 10 | > 10 | > 10 | – | 43.1 | > 10 | 14.5 | 7.5 | 5.3 | 17 |
| Nc1cncc(-c2ccc3[nH]nc(-c4cc5cccnc5[nH]4)c3c2)c1 [Compound 255, 5-(3-(1H-Pyrrolo[2,3-b]pyridin-2-yl)-1H-indazol-5-yl)pyridin-3-amine] | 0.015 | 0.102 | 0.632 | – | – | 0.138 | – | – | – | 36 |
| CC(C)C(=O)Nc1cncc(-c2ccc3[nH]nc(-c4cc5cccnc5[nH]4)c3c2)c1 [Compound 261, N-(5-(3-(1H-Pyrrolo[2,3-b]pyridin-2-yl)-1H-indazol-5-yl)pyridin-3-yl) isobutyramide] | 0.009 | 0.178 | 0.405 | 900 | – | 0.102 | – | – | – | 131 |
| c1cnc2[nH]c(-c3n[nH]c4ccc(-c5cncc(CN6CCCCC6)c5)cc34)cc2c1 [Compound 267, 5-(5-(Piperidin-1-ylmethyl)pyridin-3-yl)-3-(1H-pyrrolo[2,3-b]pyridin-2-yl)-1H-indazole] | 0.177 | 1.67 | 0.675 | 10 | – | 0.458 | – | – | – | 51 |
| CCCCC(=O)Nc1cncc(-c2ccc3[nH]nc(-c4cc5cccnc5[nH]4)c3c2)c1 [Compound 271, N-(5-(3-(1H-Pyrrolo[2,3-b]pyridin-2-yl)-1H-indazol-5-yl)pyridin-3-yl) pentanamide] | 0.023 | 0.324 | 1.06 | – | – | 0.712 | – | – | – | 34 |
| O=C(Nc1cncc(-c2ccc3[nH]nc(-c4cc5cccnc5[nH]4)c3c2)c1)C1CCCC1 [Compound 274, N-(5-(3-(1H-Pyrrolo[2,3-b]pyridin-2-yl)-1H-indazol-5-yl)pyridin-3-yl) cyclopentanecarboxamide] | 0.018 | 0.271 | 0.656 | – | – | 0.427 | – | – | – | 30 |

More lines, main results first:

| EC50 [1] [µM] | EC50 [3] [µM] | EC50 (SW480 colon cancer cells) [µM] | EC50 [4] [nM] | SMILES | inhibition at 10 µM [1] [%] | EC50 [2] [µM] | inhibition at 10 µM [2] [%] | inhibition at 10 µM [3] [%] | inhibition at 10 µM (SW480 colon cancer cells) [%] | Emax [4] [%] |
| --- | --- | --- | --- | --- | --- | --- | --- | --- | --- | --- |
| > 10 | > 10 | > 10 | – | CN(C)Cc1cncc(-c2ccc3[nH]nc(-c4cc5c(-c6ccncc6)ccnc5[nH]4)c3c2)c1 [Compound 125, N,N-Dimethyl-1-(5-(3-(4-(pyridin-4-yl)-1H-pyrrolo[2,3-b]pyridin-2-yl)-1H-indazol-5-yl)pyridin-3-yl)methanamine] | 49.7 | > 10 | 0 | 29.7 | 7.4 | 37 |
| 0.083 | 0.022 | 0.089 | – | Nc1cncc(-c2ccc3[nH]nc(-c4cc5c(-c6ccccn6)ccnc5[nH]4)c3c2)c1 [Compound 143, 5-(3-(4-(Pyridin-2-yl)-1H-pyrrolo[2,3-b]pyridin-2-yl)-1H-indazol-5-yl) pyridin-3-amine] | – | 0.045 | – | – | – | 46 |
| > 10 | > 10 | > 10 | 10 | CN(C)c1cncc(-c2ccc3[nH]nc(-c4cc5c(-c6ccccn6)ccnc5[nH]4)c3c2)c1 [Compound 147, N,N-Dimethyl-5-(3-(4-(pyridin-2-yl)-1H-pyrrolo[2,3-b]pyridin-2-yl)-1H-indazol-5-yl)pyridin-3-amine] | 30.5 | > 10 | 34 | 13.7 | 15.4 | 77 |
| 0.622 | 0.604 | 1.23 | 30 | Nc1cncc(-c2ccc3[nH]nc(-c4cc5c(N6CCCCC6)ccnc5[nH]4)c3c2)c1 [Compound 171, 5-(3-(4-(Piperidin-1-yl)-1H-pyrrolo[2,3-b]pyridin-2-yl)-1H-indazol-5-yl) pyridin-3-amine] | – | 1.72 | – | – | – | 130 |
| > 10 | > 10 | > 10 | 2700 | c1cncc(-c2ccc3[nH]nc(-c4cc5c(N6CCCCC6)ccnc5[nH]4)c3c2)c1 [Compound 172, 3-(4-(Piperidin-1-yl)-1H-pyrrolo[2,3-b]pyridin-2-yl)-5-(pyridin-3-yl)-1H-indazole] | 31.8 | > 10 | 25.1 | 48.2 | 8.9 | 162 |
| 0.315 | > 10 | 4.08 | – | c1cc(N2CCCCC2)c2cc(-c3n[nH]c4ccc(-c5cncc(CN6CCCC6)c5)cc34)[nH]c2n1 [Compound 182, 3-(4-(Piperidin-1-yl)-1H-pyrrolo[2,3-b]pyridin-2-yl)-5-(5-(pyrrolidin-1-ylmethyl)pyridin-3-yl)-1H-indazole] | – | 7.76 | – | 36 | – | 21 |
| 7.34 | 1.17 | > 10 | 100 | CN1CCN(c2ccnc3[nH]c(-c4n[nH]c5ccc(-c6cncc(N)c6)cc45)cc23)CC1 [Compound 227, 5-(3-(4-(4-Methylpiperazin-1-yl)-1H-pyrrolo[2,3-b]pyridin-2-yl)-1H-indazol-5-yl)pyridin-3-amine] | – | > 10 | 51.2 | – | 42.3 | 50 |
| > 10 | 3.48 | 4.34 | – | CN1CCN(c2ccnc3[nH]c(-c4n[nH]c5ccc(-c6cncc(CN7CCCC7)c6)cc45)cc23)CC1 [Compound 238, 3-(4-(4-Methylpiperazin-1l-yl)-1H-pyrrolo[2,3-b]pyridin-2-yl)-5-(5-(pyrrolidin-1-ylmethyl)pyridin-3-yl)-1H-indazole] | 29.4 | 1.92 | – | – | – | 22 |
| 7.73 | 3.37 | 2.17 | – | CN1CCN(c2ccnc3[nH]c(-c4n[nH]c5ccc(-c6cncc(CNCc7ccccc7)c6)cc45)cc23)CC1 [Compound 248, N-Benzyl-1-(5-(3-(4-(4-methylpiperazin-1-yl)-1H-pyrrolo[2,3-b]pyridin-2-yl)-1H-indazol-5-yl)pyridin-3-yl)methanamine] | – | 2.26 | – | – | – | 17 |
